Laboratory results as given in ChEMBL document CHEMBL1158121, “Antihyperglycemic activity and chemical constituents of Eysenhardtia platycarpa” (2006).

System: Rattus norvegicus
Assay: Antihyperglycemic activity in Streptozotocin-induced diabetic Wistar rat assessed as decrease in blood glucose level at 31 mg/kg, po after 7 hrs
Assay type: functional
Set-up: scale not given: the % may be the effect or the level left

With `CC(=O)O[C@H]1CC[C@]2(C)[C@H]3CC=C4[C@@H]5CC(C)(C)CC[C@]5(C(=O)O)CC[C@@]4(C)[C@]3(C)CC[C@H]2C1(C)C` [ACETYL OLEANOLIC ACID] the Activity was -26.3%.
